Reference: ChEMBL document CHEMBL4431352, “Structure-activity relationship of Garcinia xanthones analogues: Potent Hsp90 inhibitors with cytotoxicity and antiangiogenesis activity” (Bioorg Med Chem, 2016)
pIC50: −log10 of the molar value.

Molecular target: Heat shock protein HSP 90-alpha (Homo sapiens, UniProt P07900)
Assay: Inhibition of 6x-His tagged human recombinant full length Hsp90alpha ATPase preincubated for 0.5 hrs followed by ATP addition measured after 30 mins by HTRF assay

pIC50	SMILES
4.28	CC(=O)Oc1cccc2c1C(=O)C1=CC3CC4COC(CC=C(C)C)(C3=O)C14O2 (configuration not stated)
4.82	C/C(=C\CC12OC(C)(C)C3CC(C=C4C(=O)c5c(O)cccc5OC431)C2=O)CCl (configuration not stated)
4.26	COc1cccc2c1C(=O)C1=CC3CC4COC(CC=C(C)C)(C3=O)C14O2 (configuration not stated)
4.84	CC(C)=CCC12OCC3CC(C=C4C(=O)c5c(O)cccc5OC431)C2=O (configuration not stated)

More lines, now with the values behind:

SMILES	pIC50
C/C(=C\CC12OC(C)(C)C3CC(C=C4C(=O)c5c(O)cccc5OC431)C2=O)CO (configuration not stated)	4.56
C/C(=C\CC12OC(C)(C)C3CC(C=C4C(=O)c5c(O)cccc5OC431)C2=O)CC=O (configuration not stated)	4.65
C=CCC12OCC3CC(C=C4C(=O)c5c(O)cccc5OC431)C2=O (configuration not stated)	5.07
COc1cccc2c1C(=O)C1=CC3CC4C(C)(C)OC(CC=C(C)C)(C3=O)C14O2 (configuration not stated)	4.11
CC(C)=CCC12OC(C)(C)C3CC(C=C4C(=O)c5c(O)cc(O)cc5OC431)C2=O (configuration not stated)	4.65
CC(=O)Oc1cccc2c1C(=O)C1=CC3CC4C(C)(C)OC(CC=C(C)C)(C3=O)C14O2 (configuration not stated)	4.37
C/C(=C\CC12OCC3CC(C=C4C(=O)c5c(O)cccc5OC431)C2=O)CCl (configuration not stated)	5.21
CC(C)=CCC12OCC3CC(C=C4C(=O)c5c(cccc5OS(C)(=O)=O)OC431)C2=O (configuration not stated)	4.87
